# Data: the kinase profiling compilation of Christmann-Franck et al. (2016)
# What was measured:
# Assay in all cases: radiometric filter-binding kinase assay
# PKN2 (human) = PKN2 (human) (UniProt Q16513)
# GSK3B (human) = GSK3B (human) (UniProt P49841)
# HIPK3 (human) = HIPK3 (human) (UniProt Q9H422)
# [1] = biological target: STK11 CAB39 STRADA (human) (UniProt Q9Y376+Q7RTN6+Q15831)
# INSR (human) = INSR (human) (UniProt P06213)
# ERBB4 (human) = ERBB4 (human) (UniProt Q15303)
# PAK6 (human) = PAK6 (human) (UniProt Q9NQU5)
# MAP3K9 (human) = MAP3K9 (human) (UniProt P80192)
# [2] = tested on: AKT1 (human), P31749 [S473D]
# PRKCZ (human) = PRKCZ (human) (UniProt Q05513)
# MARK4 (human) = MARK4 (human) (UniProt Q96L34)
# BRSK1 (human) = BRSK1 (human) (UniProt Q8TDC3); conditions: compound 10.0 µM
# PRKCA (human) = PRKCA (human) (UniProt P17252)
# NTRK1 (human) = NTRK1 (human) (UniProt P04629)
# MARK1 (human) = MARK1 (human) (UniProt Q9P0L2)
# MARK2 (human) = MARK2 (human) (UniProt Q7KZI7)
# PIM1 (human) = PIM1 (human) (UniProt P11309)
# MAP3K5 (human) = MAP3K5 (human) (UniProt Q99683)
# DYRK2 (human) = DYRK2 (human) (UniProt Q92630)
# MAP3K11 (human) = MAP3K11 (human) (UniProt Q16584)
# EPHA2 (human) = EPHA2 (human) (UniProt P29317)
# IRAK4 (human) = IRAK4 (human) (UniProt Q9NWZ3)
# MAPK9 (human) = MAPK9 (human) (UniProt P45984)
# MAP3K1 (human) = MAP3K1 (human) (UniProt Q13233)
# EEF2K (human) = EEF2K (human) (UniProt O00418)
# MAPKAPK2 (human) = MAPKAPK2 (human) (UniProt P49137)
# MAPK12 (human) = MAPK12 (human) (UniProt P53778)
# EPHB3 (human) = EPHB3 (human) (UniProt P54753)
# MAP3K7 TAB1 (human) = MAP3K7 TAB1 (human) (UniProt Q15750+O43318)
# MAP2K6 (human) = MAP2K6 (human) (UniProt P52564)
# MAP2K2 (human) = MAP2K2 (human) (UniProt P36507)
# MELK (human) = MELK (human) (UniProt Q14680)
# NUAK1 (human) = NUAK1 (human) (UniProt O60285)
# PAK4 (human) = PAK4 (human) (UniProt O96013)
# MST4 (human) = MST4 (human) (UniProt Q9P289)
# AURKA (human) = AURKA (human) (UniProt O14965)
# AURKA (human), sequence (O14965 whole entry, looked up): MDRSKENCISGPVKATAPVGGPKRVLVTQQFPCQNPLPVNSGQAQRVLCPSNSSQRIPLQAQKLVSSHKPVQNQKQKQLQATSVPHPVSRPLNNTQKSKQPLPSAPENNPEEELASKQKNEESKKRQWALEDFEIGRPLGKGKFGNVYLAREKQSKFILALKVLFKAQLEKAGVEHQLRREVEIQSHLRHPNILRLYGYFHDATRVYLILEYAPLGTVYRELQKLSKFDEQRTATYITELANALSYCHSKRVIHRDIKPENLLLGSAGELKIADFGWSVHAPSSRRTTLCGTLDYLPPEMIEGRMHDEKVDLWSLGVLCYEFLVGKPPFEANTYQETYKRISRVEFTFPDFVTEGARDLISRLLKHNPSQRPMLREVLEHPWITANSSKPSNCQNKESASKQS
# NTRK1 (human), sequence (P04629 whole entry, looked up): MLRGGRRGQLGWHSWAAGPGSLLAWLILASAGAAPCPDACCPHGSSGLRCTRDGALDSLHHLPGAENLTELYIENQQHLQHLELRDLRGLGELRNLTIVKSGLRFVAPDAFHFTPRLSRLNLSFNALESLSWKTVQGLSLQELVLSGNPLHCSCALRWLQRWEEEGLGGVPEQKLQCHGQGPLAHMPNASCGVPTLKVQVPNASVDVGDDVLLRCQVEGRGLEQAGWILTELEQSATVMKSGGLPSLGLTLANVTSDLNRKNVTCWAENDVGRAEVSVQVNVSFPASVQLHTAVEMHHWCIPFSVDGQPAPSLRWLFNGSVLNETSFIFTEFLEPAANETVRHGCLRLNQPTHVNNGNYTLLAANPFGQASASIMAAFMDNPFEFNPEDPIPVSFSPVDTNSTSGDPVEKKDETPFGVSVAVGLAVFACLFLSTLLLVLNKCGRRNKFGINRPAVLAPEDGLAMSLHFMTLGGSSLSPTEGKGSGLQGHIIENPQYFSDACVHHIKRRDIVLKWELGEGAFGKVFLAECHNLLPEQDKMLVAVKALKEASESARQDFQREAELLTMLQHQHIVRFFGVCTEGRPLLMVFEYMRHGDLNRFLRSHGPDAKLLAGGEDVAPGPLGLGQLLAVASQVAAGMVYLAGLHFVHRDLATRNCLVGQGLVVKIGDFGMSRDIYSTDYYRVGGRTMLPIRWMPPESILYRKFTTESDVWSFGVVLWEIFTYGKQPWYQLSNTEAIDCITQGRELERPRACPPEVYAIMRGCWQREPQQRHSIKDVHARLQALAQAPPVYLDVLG
# GSK3B (human), sequence (P49841 whole entry, looked up): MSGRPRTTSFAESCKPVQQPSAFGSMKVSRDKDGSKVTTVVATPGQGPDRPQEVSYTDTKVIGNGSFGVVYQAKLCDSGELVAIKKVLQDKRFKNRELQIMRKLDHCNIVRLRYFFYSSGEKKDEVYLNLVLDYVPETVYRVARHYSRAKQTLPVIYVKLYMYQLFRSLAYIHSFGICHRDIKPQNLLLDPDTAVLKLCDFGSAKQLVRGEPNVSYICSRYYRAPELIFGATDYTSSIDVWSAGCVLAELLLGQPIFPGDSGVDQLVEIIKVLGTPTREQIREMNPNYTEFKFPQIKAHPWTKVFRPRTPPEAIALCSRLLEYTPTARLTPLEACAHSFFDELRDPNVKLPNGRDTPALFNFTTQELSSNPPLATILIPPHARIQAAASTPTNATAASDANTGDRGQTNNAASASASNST
# EPHA2 (human), sequence (P29317 whole entry, looked up): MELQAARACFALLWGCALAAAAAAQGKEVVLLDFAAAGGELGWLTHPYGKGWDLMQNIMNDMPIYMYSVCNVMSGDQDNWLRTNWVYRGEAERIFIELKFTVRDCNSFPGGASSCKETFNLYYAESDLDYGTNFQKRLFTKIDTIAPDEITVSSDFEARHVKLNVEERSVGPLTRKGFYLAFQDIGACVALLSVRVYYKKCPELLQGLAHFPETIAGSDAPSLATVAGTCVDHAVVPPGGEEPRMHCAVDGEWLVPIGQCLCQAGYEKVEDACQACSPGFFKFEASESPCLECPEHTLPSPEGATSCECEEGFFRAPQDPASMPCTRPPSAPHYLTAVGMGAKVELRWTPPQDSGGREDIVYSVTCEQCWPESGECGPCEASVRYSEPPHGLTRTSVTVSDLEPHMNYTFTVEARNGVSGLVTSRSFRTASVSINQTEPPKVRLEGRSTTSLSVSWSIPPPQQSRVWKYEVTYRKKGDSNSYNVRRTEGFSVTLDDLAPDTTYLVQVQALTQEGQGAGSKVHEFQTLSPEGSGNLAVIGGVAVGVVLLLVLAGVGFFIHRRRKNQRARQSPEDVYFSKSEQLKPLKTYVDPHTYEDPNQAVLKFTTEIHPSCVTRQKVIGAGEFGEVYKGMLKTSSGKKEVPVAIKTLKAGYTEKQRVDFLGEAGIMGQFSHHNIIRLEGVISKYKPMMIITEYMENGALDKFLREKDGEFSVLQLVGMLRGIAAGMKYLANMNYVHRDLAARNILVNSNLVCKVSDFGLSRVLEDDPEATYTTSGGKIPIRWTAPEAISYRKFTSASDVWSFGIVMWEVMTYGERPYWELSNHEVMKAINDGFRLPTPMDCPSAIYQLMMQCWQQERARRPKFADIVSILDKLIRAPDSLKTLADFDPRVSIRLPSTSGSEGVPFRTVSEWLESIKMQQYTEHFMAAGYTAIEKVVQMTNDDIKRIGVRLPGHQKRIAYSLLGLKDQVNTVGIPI
# MAP3K1 (human), sequence (Q13233 whole entry, looked up): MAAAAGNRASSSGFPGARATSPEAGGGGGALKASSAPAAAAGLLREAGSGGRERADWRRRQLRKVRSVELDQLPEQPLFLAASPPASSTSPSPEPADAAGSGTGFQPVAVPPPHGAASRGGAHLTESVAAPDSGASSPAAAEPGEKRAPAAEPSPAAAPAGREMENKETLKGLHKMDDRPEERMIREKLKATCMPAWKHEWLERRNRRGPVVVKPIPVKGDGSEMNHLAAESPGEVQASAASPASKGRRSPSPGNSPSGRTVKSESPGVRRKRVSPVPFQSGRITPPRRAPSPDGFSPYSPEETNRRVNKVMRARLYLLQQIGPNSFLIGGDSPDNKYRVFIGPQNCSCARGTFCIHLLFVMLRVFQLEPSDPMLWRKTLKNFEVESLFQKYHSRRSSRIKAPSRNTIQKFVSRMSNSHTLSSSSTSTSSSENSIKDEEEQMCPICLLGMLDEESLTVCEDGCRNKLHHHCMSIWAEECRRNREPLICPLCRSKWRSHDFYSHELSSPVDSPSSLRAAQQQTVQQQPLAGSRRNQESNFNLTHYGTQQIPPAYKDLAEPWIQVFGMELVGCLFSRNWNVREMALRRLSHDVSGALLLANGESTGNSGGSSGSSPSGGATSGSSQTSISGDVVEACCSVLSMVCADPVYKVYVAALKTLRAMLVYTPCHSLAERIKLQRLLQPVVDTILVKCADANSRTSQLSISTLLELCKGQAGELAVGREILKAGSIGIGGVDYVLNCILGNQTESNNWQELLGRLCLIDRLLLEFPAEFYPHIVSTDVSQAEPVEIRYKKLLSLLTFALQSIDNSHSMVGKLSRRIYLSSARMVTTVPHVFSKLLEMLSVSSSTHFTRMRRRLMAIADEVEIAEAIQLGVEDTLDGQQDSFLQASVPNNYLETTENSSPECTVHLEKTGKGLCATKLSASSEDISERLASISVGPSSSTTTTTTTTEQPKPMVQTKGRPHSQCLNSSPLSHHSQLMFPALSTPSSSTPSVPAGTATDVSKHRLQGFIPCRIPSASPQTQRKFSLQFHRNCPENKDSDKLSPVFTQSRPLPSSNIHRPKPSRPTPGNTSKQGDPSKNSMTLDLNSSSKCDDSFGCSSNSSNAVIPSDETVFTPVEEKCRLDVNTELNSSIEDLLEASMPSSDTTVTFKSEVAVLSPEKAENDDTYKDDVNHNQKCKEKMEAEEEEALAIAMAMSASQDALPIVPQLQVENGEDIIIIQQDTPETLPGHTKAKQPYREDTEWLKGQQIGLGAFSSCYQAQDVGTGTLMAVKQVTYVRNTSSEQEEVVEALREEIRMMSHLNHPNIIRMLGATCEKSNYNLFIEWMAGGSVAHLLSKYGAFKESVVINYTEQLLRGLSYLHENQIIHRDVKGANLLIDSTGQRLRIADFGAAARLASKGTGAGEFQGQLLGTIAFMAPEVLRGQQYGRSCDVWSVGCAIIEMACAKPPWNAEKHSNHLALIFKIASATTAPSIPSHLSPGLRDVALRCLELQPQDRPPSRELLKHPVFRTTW
# MAP3K11 (human), sequence (Q16584 whole entry, looked up): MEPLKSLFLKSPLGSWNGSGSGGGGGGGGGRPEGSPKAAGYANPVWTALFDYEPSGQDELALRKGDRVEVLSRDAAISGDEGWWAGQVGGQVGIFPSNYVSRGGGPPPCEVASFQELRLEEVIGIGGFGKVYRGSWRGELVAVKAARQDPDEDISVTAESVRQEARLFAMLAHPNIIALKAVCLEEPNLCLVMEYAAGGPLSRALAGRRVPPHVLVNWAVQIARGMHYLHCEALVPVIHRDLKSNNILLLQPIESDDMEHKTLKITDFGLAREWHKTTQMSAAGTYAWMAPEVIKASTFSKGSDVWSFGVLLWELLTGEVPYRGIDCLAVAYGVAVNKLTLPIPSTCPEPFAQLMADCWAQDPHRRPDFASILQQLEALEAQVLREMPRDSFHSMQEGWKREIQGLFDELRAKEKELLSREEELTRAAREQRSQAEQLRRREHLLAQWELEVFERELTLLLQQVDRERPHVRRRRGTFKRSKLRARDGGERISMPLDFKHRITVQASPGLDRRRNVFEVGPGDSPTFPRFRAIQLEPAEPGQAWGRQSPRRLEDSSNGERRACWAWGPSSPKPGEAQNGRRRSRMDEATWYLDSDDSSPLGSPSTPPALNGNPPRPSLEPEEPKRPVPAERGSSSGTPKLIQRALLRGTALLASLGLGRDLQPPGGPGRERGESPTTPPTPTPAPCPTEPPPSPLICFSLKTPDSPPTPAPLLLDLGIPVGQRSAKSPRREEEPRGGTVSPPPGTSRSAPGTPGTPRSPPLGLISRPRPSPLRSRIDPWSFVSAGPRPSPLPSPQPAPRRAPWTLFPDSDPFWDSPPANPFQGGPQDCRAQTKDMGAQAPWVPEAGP
compound,measurement,setting,value
C=CC(=O)N1CCC[C@@H](n2nc(-c3ccc(Oc4ccccc4)cc3)c3c(N)ncnc32)C1,residual activity,PKN2 (human); compound 0.1 µM,109%
same,residual activity,PKN2 (human); compound 1.0 µM,100%
same,residual activity,PKN2 (human); compound 10.0 µM,90%
same,residual activity,GSK3B (human); compound 0.1 µM,104%
same,residual activity,GSK3B (human); compound 1.0 µM,95%
same,residual activity,GSK3B (human); compound 10.0 µM,75%
same,residual activity,HIPK3 (human); compound 0.1 µM,100%
same,residual activity,HIPK3 (human); compound 1.0 µM,123%
same,residual activity,HIPK3 (human); compound 10.0 µM,110%
same,residual activity,[1]; compound 0.1 µM,106%
same,residual activity,[1]; compound 10.0 µM,100%
same,residual activity,INSR (human); compound 0.1 µM,77%
same,residual activity,INSR (human); compound 10.0 µM,31%
same,residual activity,ERBB4 (human); compound 0.1 µM,7%
same,residual activity,ERBB4 (human); compound 1.0 µM,8%
same,residual activity,ERBB4 (human); compound 10.0 µM,5%
same,residual activity,PAK6 (human); compound 0.1 µM,95%
same,residual activity,PAK6 (human); compound 1.0 µM,97%
same,residual activity,PAK6 (human); compound 10.0 µM,82%
same,residual activity,MAP3K9 (human); compound 0.1 µM,104%
same,residual activity,MAP3K9 (human); compound 1.0 µM,89%
same,residual activity,MAP3K9 (human); compound 10.0 µM,27%
same,residual activity,[2]; compound 0.1 µM,79%
same,residual activity,[2]; compound 1.0 µM,97%
same,residual activity,[2]; compound 10.0 µM,78%
same,residual activity,PRKCZ (human); compound 0.1 µM,90%
same,residual activity,PRKCZ (human); compound 1.0 µM,98%
same,residual activity,PRKCZ (human); compound 10.0 µM,81%
same,residual activity,MARK4 (human); compound 0.1 µM,111%
same,residual activity,MARK4 (human); compound 1.0 µM,114%
same,residual activity,MARK4 (human); compound 10.0 µM,80%
same,residual activity,BRSK1 (human),49%
same,residual activity,PRKCA (human); compound 0.1 µM,99%
same,residual activity,PRKCA (human); compound 10.0 µM,100%
same,residual activity,NTRK1 (human); compound 0.1 µM,64%
same,residual activity,NTRK1 (human); compound 1.0 µM,46%
same,residual activity,NTRK1 (human); compound 10.0 µM,13%
same,residual activity,MARK1 (human); compound 0.1 µM,101%
same,residual activity,MARK1 (human); compound 1.0 µM,103%
same,residual activity,MARK1 (human); compound 10.0 µM,88%
same,residual activity,MARK2 (human); compound 0.1 µM,88%
same,residual activity,MARK2 (human); compound 1.0 µM,102%
same,residual activity,MARK2 (human); compound 10.0 µM,82%
same,residual activity,PIM1 (human); compound 0.1 µM,98%
same,residual activity,PIM1 (human); compound 1.0 µM,95%
same,residual activity,PIM1 (human); compound 10.0 µM,81%
same,residual activity,MAP3K5 (human); compound 0.1 µM,103%
same,residual activity,MAP3K5 (human); compound 1.0 µM,128%
same,residual activity,MAP3K5 (human); compound 10.0 µM,111%
same,residual activity,DYRK2 (human); compound 0.1 µM,83%
same,residual activity,DYRK2 (human); compound 1.0 µM,105%
same,residual activity,DYRK2 (human); compound 10.0 µM,79%
same,residual activity,MAP3K11 (human); compound 0.1 µM,87%
same,residual activity,MAP3K11 (human); compound 1.0 µM,65%
same,residual activity,MAP3K11 (human); compound 10.0 µM,28%
same,residual activity,EPHA2 (human); compound 0.1 µM,91%
same,residual activity,EPHA2 (human); compound 1.0 µM,98%
same,residual activity,EPHA2 (human); compound 10.0 µM,64%
same,residual activity,IRAK4 (human); compound 0.1 µM,103%
same,residual activity,IRAK4 (human); compound 1.0 µM,102%
same,residual activity,IRAK4 (human); compound 10.0 µM,86%
same,residual activity,MAPK9 (human); compound 0.1 µM,89%
same,residual activity,MAPK9 (human); compound 1.0 µM,101%
same,residual activity,MAP3K1 (human); compound 0.1 µM,106%
same,residual activity,MAP3K1 (human); compound 1.0 µM,103%
same,residual activity,MAP3K1 (human); compound 10.0 µM,56%
same,residual activity,EEF2K (human); compound 0.1 µM,88%
same,residual activity,EEF2K (human); compound 10.0 µM,90%
same,residual activity,MAPKAPK2 (human); compound 0.1 µM,88%
same,residual activity,MAPKAPK2 (human); compound 1.0 µM,95%
same,residual activity,MAPKAPK2 (human); compound 10.0 µM,90%
same,residual activity,MAPK12 (human); compound 0.1 µM,89%
same,residual activity,MAPK12 (human); compound 1.0 µM,112%
same,residual activity,EPHB3 (human); compound 0.1 µM,99%
same,residual activity,EPHB3 (human); compound 1.0 µM,96%
same,residual activity,EPHB3 (human); compound 10.0 µM,51%
same,residual activity,MAP3K7 TAB1 (human); compound 0.1 µM,102%
same,residual activity,MAP3K7 TAB1 (human); compound 1.0 µM,106%
same,residual activity,MAP3K7 TAB1 (human); compound 10.0 µM,66%
same,residual activity,MAP2K6 (human); compound 0.1 µM,82%
same,residual activity,MAP2K6 (human); compound 1.0 µM,97%
same,residual activity,MAP2K6 (human); compound 10.0 µM,61%
same,residual activity,MAP2K2 (human); compound 0.1 µM,94%
same,residual activity,MAP2K2 (human); compound 1.0 µM,94%
same,residual activity,MAP2K2 (human); compound 10.0 µM,63%
same,residual activity,MELK (human); compound 0.1 µM,69%
same,residual activity,MELK (human); compound 10.0 µM,56%
same,residual activity,NUAK1 (human); compound 0.1 µM,99%
same,residual activity,NUAK1 (human); compound 1.0 µM,82%
same,residual activity,NUAK1 (human); compound 10.0 µM,26%
same,residual activity,PAK4 (human); compound 0.1 µM,93%
same,residual activity,PAK4 (human); compound 1.0 µM,85%
same,residual activity,PAK4 (human); compound 10.0 µM,42%
same,residual activity,MST4 (human); compound 0.1 µM,100%
same,residual activity,MST4 (human); compound 1.0 µM,73%
same,residual activity,MST4 (human); compound 10.0 µM,27%
same,residual activity,AURKA (human); compound 0.1 µM,92%
same,residual activity,AURKA (human); compound 1.0 µM,57%
same,residual activity,AURKA (human); compound 10.0 µM,10%
